According to patent US20250171437A1 (Agios Pharmaceuticals,Inc., priority 2022, published 2025):

Biological target: T1, human PAH with the R408W mutation (A375 R408W cells) (Homo sapiens, UniProt P00439, R408W)
T1 construct: expressed in transfected cells
T1 sequence (P00439 1-452 R408W): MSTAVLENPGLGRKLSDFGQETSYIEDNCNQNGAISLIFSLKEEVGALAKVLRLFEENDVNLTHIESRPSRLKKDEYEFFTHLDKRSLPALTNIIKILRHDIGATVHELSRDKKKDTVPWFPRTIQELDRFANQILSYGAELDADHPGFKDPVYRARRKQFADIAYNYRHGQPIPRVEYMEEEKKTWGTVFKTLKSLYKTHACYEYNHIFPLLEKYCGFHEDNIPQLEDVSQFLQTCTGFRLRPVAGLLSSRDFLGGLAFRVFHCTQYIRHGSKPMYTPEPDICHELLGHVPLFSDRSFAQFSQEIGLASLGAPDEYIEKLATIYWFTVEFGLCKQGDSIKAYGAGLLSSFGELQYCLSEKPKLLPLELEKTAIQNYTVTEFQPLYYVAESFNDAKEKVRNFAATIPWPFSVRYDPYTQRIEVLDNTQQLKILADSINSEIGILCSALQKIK
Assay: Cell Based Phenylalanine Flux Assay
Conditions: A375 R408W cells; 24 hrs with compound, then 20 μM sepiapterin and 800 μM 13C9,15N-Phenylalanine for 4 hours; 13C-Tyrosine by LC-MS; average where tested multiple times
In short: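 AC50 is derived from LC-MS of 13C-tyrosine in the media after a 4 h pulse of 800 μM 13C9,15N-phenylalanine plus 20 μM sepiapterin. The A375 R408W PAH cells had received duplicate 10-point, 2-fold compound dilutions (0.5% DMSO) for 24 h beforehand.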

Structure (SMILES) | AC50 [nM]
CC(C)(O)c1ncc(C(=O)N2CCc3[nH]cnc3[C@H]2c2nc3cccc(F)c3o2)o1 [Example 713, (S)-(4-(7-fluorobenzo[d]oxazol-2-yl)-6,7-dihydro-1H-imidazo[4,5-c]pyridin-5(4H)-yl)(2-(2-hydroxypropan-2-yl)oxazol-5-yl)methanone] | 500 to 1000
CC(C)(O)c1ncc(C(=O)N2CCc3[nH]cnc3[C@@H]2c2nc3cccc(F)c3o2)o1 [Example 714, (R)-(4-(7-fluorobenzo[d]oxazol-2-yl)-6,7-dihydro-1H-imidazo[4,5-c]pyridin-5(4H)-yl)(2-(2-hydroxypropan-2-yl)oxazol-5-yl)methanone] | 1000 to 5000
COc1cc(F)cc2nc([C@@H]3c4nc[nH]c4CCN3C(=O)c3oc(C(C)(C)O)nc3C(F)F)oc12 [Example 715, (S)-(4-(difluoromethyl)-2-(2-hydroxypropan-2-yl)oxazol-5-yl)(4-(5-fluoro-7-methoxybenzo[d]oxazol-2-yl)-6,7-dihydro-1H-imidazo[4,5-c]pyridin-5(4H)-yl)methanone] | ≤ 500
COc1cc(F)cc2nc([C@H]3c4nc[nH]c4CCN3C(=O)c3oc(C(C)(C)O)nc3C(F)F)oc12 [Example 716, (R)-(4-(difluoromethyl)-2-(2-hydroxypropan-2-yl)oxazol-5-yl)(4-(5-fluoro-7-methoxybenzo[d]oxazol-2-yl)-6,7-dihydro-1H-imidazo[4,5-c]pyridin-5(4H)-yl)methanone] | 1000 to 5000
COc1cc(F)cc2nc([C@H]3c4nc[nH]c4CCN3C(=O)c3ocnc3C(F)F)oc12 [Example 717, (R)-(4-(difluoromethyl)oxazol-5-yl)(4-(5-fluoro-7-methoxybenzo[d]oxazol-2-yl)-6,7-dihydro-1H-imidazo[4,5-c]pyridin-5(4H)-yl)methanone] | 500 to 1000
COc1cc(F)cc2nc([C@@H]3c4nc[nH]c4CCN3C(=O)c3ocnc3C(F)F)oc12 [Example 718, (S)-(4-(difluoromethyl)oxazol-5-yl)(4-(5-fluoro-7-methoxybenzo[d]oxazol-2-yl)-6,7-dihydro-1H-imidazo[4,5-c]pyridin-5(4H)-yl)methanone] | ≤ 500
Cc1c(F)ccc2oc([C@@H]3c4nc[nH]c4CCN3C(=O)c3oc(C(C)(C)O)nc3C(F)F)nc12 [Example 719, (S)-(4-(difluoromethyl)-2-(2-hydroxypropan-2-yl)oxazol-5-yl)(4-(5-fluoro-4-methylbenzo[d]oxazol-2-yl)-6,7-dihydro-1H-imidazo[4,5-c]pyridin-5(4H)-yl)methanone] | ≤ 500
Cc1c(F)ccc2oc([C@H]3c4nc[nH]c4CCN3C(=O)c3oc(C(C)(C)O)nc3C(F)F)nc12 [Example 720, (R)-(4-(difluoromethyl)-2-(2-hydroxypropan-2-yl)oxazol-5-yl)(4-(5-fluoro-4-methylbenzo[d]oxazol-2-yl)-6,7-dihydro-1H-imidazo[4,5-c]pyridin-5(4H)-yl)methanone] | 500 to 1000
Cc1c(F)ccc2oc([C@H]3c4nc[nH]c4CCN3C(=O)c3ocnc3C(F)F)nc12 [Example 721, (R)-(4-(difluoromethyl)oxazol-5-yl)(4-(5-fluoro-4-methylbenzo[d]oxazol-2-yl)-6,7-dihydro-1H-imidazo[4,5-c]pyridin-5(4H)-yl)methanone] | 1000 to 5000
Cc1c(F)ccc2oc([C@@H]3c4nc[nH]c4CCN3C(=O)c3ocnc3C(F)F)nc12 [Example 722, (S)-(4-(difluoromethyl)oxazol-5-yl)(4-(5-fluoro-4-methylbenzo[d]oxazol-2-yl)-6,7-dihydro-1H-imidazo[4,5-c]pyridin-5(4H)-yl)methanone] | ≤ 500
Cc1ccc(F)c2nc([C@@H]3c4nc[nH]c4CCN3C(=O)c3oc(C(C)(C)O)nc3C(F)F)oc12 [Example 723, (S)-(4-(difluoromethyl)-2-(2-hydroxypropan-2-yl)oxazol-5-yl)(4-(4-fluoro-7-methylbenzo[d]oxazol-2-yl)-6,7-dihydro-1H-imidazo[4,5-c]pyridin-5(4H)-yl)methanone] | ≤ 500
Cc1ccc(F)c2nc([C@H]3c4nc[nH]c4CCN3C(=O)c3oc(C(C)(C)O)nc3C(F)F)oc12 [Example 724, (R)-(4-(difluoromethyl)-2-(2-hydroxypropan-2-yl)oxazol-5-yl)(4-(4-fluoro-7-methylbenzo[d]oxazol-2-yl)-6,7-dihydro-1H-imidazo[4,5-c]pyridin-5(4H)-yl)methanone] | 1000 to 5000
Cn1nc(C(F)F)cc1C(=O)N1CCc2[nH]cnc2[C@H]1c1nc2ccccc2o1 [Example 731, (S)-(4-(benzo[d]oxazol-2-yl)-6,7-dihydro-1H-imidazo[4,5-c]pyridin-5(4H)-yl)(3-(difluoromethyl)-1-methyl-1H-pyrazol-5-yl)methanone] | ≤ 500

Next, values leading:

AC50 [nM] | Structure (SMILES)
≤ 500 | CC(C)n1ncnc1C(=O)N1CCc2[nH]cnc2[C@H]1c1nc2cccc(F)c2o1 [Example 707, (S)-(4-(7-fluorobenzo[d]oxazol-2-yl)-6,7-dihydro-1H-imidazo[4,5-c]pyridin-5(4H)-yl)(1-isopropyl-1H-1,2,4-triazol-5-yl)methanone]
500 to 1000 | CC(C)n1ncnc1C(=O)N1CCc2[nH]cnc2[C@@H]1c1nc2cccc(F)c2o1 [Example 708, (R)-(4-(7-fluorobenzo[d]oxazol-2-yl)-6,7-dihydro-1H-imidazo[4,5-c]pyridin-5(4H)-yl)(1-isopropyl-1H-1,2,4-triazol-5-yl)methanone]
≤ 500 | Cc1cccc2nc([C@@H]3c4nc[nH]c4CCN3C(=O)c3ccnn3C(F)(F)F)oc12 [Example 710, (S)-(4-(7-methylbenzo[d]oxazol-2-yl)-6,7-dihydro-1H-imidazo[4,5-c]pyridin-5(4H)-yl)(1-(trifluoromethyl)-1H-pyrazol-5-yl)methanone]
1000 to 5000 | Cn1nccc1C(=O)N1CCc2[nH]cnc2[C@H]1c1nc2ccccc2o1 [Example 711, (S)-(4-(benzo[d]oxazol-2-yl)-6,7-dihydro-1H-imidazo[4,5-c]pyridin-5(4H)-yl)(1-methyl-1H-pyrazol-5-yl)methanone]
1000 to 5000 | Cn1nccc1C(=O)N1CCc2[nH]cnc2[C@@H]1c1nc2ccccc2o1 [Example 712, (R)-(4-(benzo[d]oxazol-2-yl)-6,7-dihydro-1H-imidazo[4,5-c]pyridin-5(4H)-yl)(1-methyl-1H-pyrazol-5-yl)methanone]
≤ 500 | O=C(c1ccnn1C1CC1)N1CCc2[nH]cnc2[C@H]1c1nc2ccccc2o1 [Example 725, (S)-(4-(benzo[d]oxazol-2-yl)-6,7-dihydro-1H-imidazo[4,5-c]pyridin-5(4H)-yl)(1-cyclopropyl-1H-pyrazol-5-yl)methanone]
500 to 1000 | O=C(c1ccnn1C1CC1)N1CCc2[nH]cnc2[C@H]1c1nc2cccc(F)c2o1 [Example 727, (S)-(1-cyclopropyl-1H-pyrazol-5-yl)(4-(7-fluorobenzo[d]oxazol-2-yl)-6,7-dihydro-1H-imidazo[4,5-c]pyridin-5(4H)-yl)methanone]
≥ 5000 | O=C(c1ccnn1C1CC1)N1CCc2[nH]cnc2[C@@H]1c1nc2cccc(F)c2o1 [Example 728, (R)-(1-cyclopropyl-1H-pyrazol-5-yl)(4-(7-fluorobenzo[d]oxazol-2-yl)-6,7-dihydro-1H-imidazo[4,5-c]pyridin-5(4H)-yl)methanone]
500 to 1000 | O=C(c1ccnn1-c1ccccn1)N1CCc2[nH]cnc2[C@H]1c1nc2cccc(F)c2o1 [Example 729, (S)-(4-(7-fluorobenzo[d]oxazol-2-yl)-6,7-dihydro-1H-imidazo[4,5-c]pyridin-5(4H)-yl)(1-(pyridin-2-yl)-1H-pyrazol-5-yl)methanone]
